Values quoted from earlier work, collected in patent publication EP3599609A1, “SYSTEM AND METHOD FOR CLEANING NOISY GENETIC DATA AND USING DATA TO MAKE PREDICTIONS” (Natera, Inc., priority 2005, dated 2007).

Conditions: colon cancer patients treated with irinotecan

severe diarrhea, patients affected: 31% | severe neutropenia, patients affected: 28%
SMILES: CCc1c2c(nc3ccc(OC(=O)N4CCC(N5CCCCC5)CC4)cc13)-c1cc3c(c(=O)n1C2)COC(=O)[C@]3(O)CC [irinotecan]
